Laboratory results published in patent US10004701B2, “Methods and compositions for treating infection” (UNIVERSITY OF ROCHESTER, priority 2012, dated 2018).
Where a name gives a salt, the structure may show the parent alone. Read-outs that look alike come from different tables or passages of the source.

Columns and labels:
Test in all cases: AK assay 384-well format, Prestwick library screening
[1] = test system: S. aureus strain USA300-0114; assay type: cell-based, Staphylococcus aureus; conditions: 50 μM final drug concentration; for fold induction at 50 µM: Staphylococcus aureus, USA300, 3 h
E. faecium = assay type: cell-based, Enterococcus faecium; conditions: 50 μM final drug concentration; for fold induction at 50 µM: Enterococcus faecium, 3 h
[2] = test system: A. baumannii strain 98-37-09; assay type: cell-based, Acinetobacter baumannii; conditions: 50 μM final drug concentration; for fold induction at 50 µM: Acinetobacter baumannii, 983709, 3 h
K. pneumoniae = assay type: cell-based, Klebsiella pneumoniae; conditions: 50 μM final drug concentration; for fold induction at 50 µM: Klebsiella pneumoniae, 3 h
E. coli = assay type: cell-based, Escherichia coli; conditions: 50 μM final drug concentration; for fold induction at 50 µM: Escherichia coli, 3 h
E. cloacae = assay type: cell-based, Enterobacter cloacae; conditions: 50 μM final drug concentration; for fold induction at 50 µM: Enterobacter cloacae, 3 h
P. aeruginosa = assay type: cell-based, Pseudomonas aeruginosa; conditions: 50 μM final drug concentration; for fold induction at 50 µM: Pseudomonas aeruginosa, 3 h
[3] = 384-well format, cutoff for positive-scoring molecules 3-fold increase

## COc1ccc2c3c([nH]c2c1)C(C)=NCC3 [Harmaline hydrochloride dihydrate]
[1]; planktonic, […], read-out: AK-based Prestwick Library Screening Results, S. aureus (fold increase in extracellular AK activity)
  fold induction at 50 µM: 1.4
E. faecium; planktonic, […], read-out: AK-based Prestwick Library Screening Results, E. faecium (fold increase in extracellular AK activity)
  fold induction at 50 µM: 1
[2]; planktonic, […], read-out: AK-based Prestwick Library Screening Results, A. baumannii (fold increase in extracellular AK activity)
  fold induction at 50 µM: 1
K. pneumoniae; planktonic, […], read-out: AK-based Prestwick Library Screening Results, K. pneumoniae (fold increase in extracellular AK activity)
  fold induction at 50 µM: 0.9
E. coli; planktonic, […], read-out: AK-based Prestwick Library Screening Results, E. coli (fold increase in extracellular AK activity)
  fold induction at 50 µM: 1.1
E. cloacae; planktonic, […], read-out: AK-based Prestwick Library Screening Results, E. cloacae (fold increase in extracellular AK activity)
  fold induction at 50 µM: 1.3
P. aeruginosa; planktonic, […], read-out: AK-based Prestwick Library Screening Results, P. aeruginosa (fold increase in extracellular AK activity)
  fold induction at 50 µM: 1

## COc1cc([C@@H]2c3cc4c(cc3[C@H](O)[C@H]3COC(=O)[C@H]23)OCO4)cc(OC)c1OC [Podophyllotoxin]
[1]; […], read-out: AK-based Prestwick Library Screening Results, S. aureus (fold increase in extracellular AK activity)
  fold induction at 50 µM: 1
E. faecium; […], read-out: AK-based Prestwick Library Screening Results, E. faecium (fold increase in extracellular AK activity)
  fold induction at 50 µM: 0.9
[2]; […], read-out: AK-based Prestwick Library Screening Results, A. baumannii (fold increase in extracellular AK activity)
  fold induction at 50 µM: 1.2
K. pneumoniae; […], read-out: AK-based Prestwick Library Screening Results, K. pneumoniae (fold increase in extracellular AK activity)
  fold induction at 50 µM: 1.2
E. coli; […], read-out: AK-based Prestwick Library Screening Results, E. coli (fold increase in extracellular AK activity)
  fold induction at 50 µM: 1.2
E. cloacae; […], read-out: AK-based Prestwick Library Screening Results, E. cloacae (fold increase in extracellular AK activity)
  fold induction at 50 µM: 1.3
P. aeruginosa; […], read-out: AK-based Prestwick Library Screening Results, P. aeruginosa (fold increase in extracellular AK activity)
  fold induction at 50 µM: 1.1

## O=c1c2ccccc2[se]n1-c1ccccc1 [Ebselen]
[1]; planktonic, cutoff for positive-scoring molecules 3-fold increase, read-out: AK-based Prestwick Library Screening Results, S. aureus (fold increase in extracellular AK activity)
  fold induction at 50 µM: 0.5
E. faecium; planktonic, cutoff for positive-scoring molecules 3-fold increase, read-out: AK-based Prestwick Library Screening Results, E. faecium (fold increase in extracellular AK activity)
  fold induction at 50 µM: 0.9
[2]; planktonic, cutoff for positive-scoring molecules 3-fold increase, read-out: AK-based Prestwick Library Screening Results, A. baumannii (fold increase in extracellular AK activity)
  fold induction at 50 µM: 0.7
K. pneumoniae; planktonic, cutoff for positive-scoring molecules 3-fold increase, read-out: AK-based Prestwick Library Screening Results, K. pneumoniae (fold increase in extracellular AK activity)
  fold induction at 50 µM: 0.6
E. coli; planktonic, cutoff for positive-scoring molecules 3-fold increase, read-out: AK-based Prestwick Library Screening Results, E. coli (fold increase in extracellular AK activity)
  fold induction at 50 µM: 0.6
E. cloacae; planktonic, cutoff for positive-scoring molecules 3-fold increase, read-out: AK-based Prestwick Library Screening Results, E. cloacae (fold increase in extracellular AK activity)
  fold induction at 50 µM: 0.7
P. aeruginosa; planktonic, cutoff for positive-scoring molecules 3-fold increase, read-out: AK-based Prestwick Library Screening Results, P. aeruginosa (fold increase in extracellular AK activity)
  fold induction at 50 µM: 0.6

## CN(C)CCC=C1c2ccccc2COc2ccccc21 [Doxepin hydrochloride]
[1]; 384-well format, cutoff for positive-scoring molecules 3-fold increase, read-out: AK-based Prestwick Library Screening Results, S. aureus (increase in extracellular AK activity)
  fold induction at 50 µM: 0.9
E. faecium; 384-well format, cutoff for positive-scoring molecules 3-fold increase, read-out: AK-based Prestwick Library Screening Results, E. faecium (increase in extracellular AK activity)
  fold induction at 50 µM: 1
[2]; 384-well format, cutoff for positive-scoring molecules 3-fold increase, read-out: AK-based Prestwick Library Screening Results, A. baumannii (increase in extracellular AK activity)
  fold induction at 50 µM: 0.9
K. pneumoniae; 384-well format, cutoff for positive-scoring molecules 3-fold increase, read-out: AK-based Prestwick Library Screening Results, K. pneumoniae (increase in extracellular AK activity)
  fold induction at 50 µM: 0.8
E. coli; 384-well format, cutoff for positive-scoring molecules 3-fold increase, read-out: AK-based Prestwick Library Screening Results, E. coli (increase in extracellular AK activity)
  fold induction at 50 µM: 1.1
E. cloacae; 384-well format, cutoff for positive-scoring molecules 3-fold increase, read-out: AK-based Prestwick Library Screening Results, E. cloacae (increase in extracellular AK activity)
  fold induction at 50 µM: 1
P. aeruginosa; 384-well format, cutoff for positive-scoring molecules 3-fold increase, read-out: AK-based Prestwick Library Screening Results, P. aeruginosa (increase in extracellular AK activity)
  fold induction at 50 µM: 1.1

## CNCC(O)c1ccc(O)c(OC)c1.Cl (stereo not drawn) [Metanephrine hydrochloride DL]
[1]; [3]
  AK-based Prestwick Library Screening Results, S. aureus (increase in extracellular AK activity): 1.2
E. faecium; [3]
  AK-based Prestwick Library Screening Results, E. faecium (increase in extracellular AK activity): 1.0
[2]; [3]
  AK-based Prestwick Library Screening Results, A. baumannii (increase in extracellular AK activity): 1.1
K. pneumoniae; [3]
  AK-based Prestwick Library Screening Results, K. pneumoniae (increase in extracellular AK activity): 1.0
E. coli; [3]
  AK-based Prestwick Library Screening Results, E. coli (increase in extracellular AK activity): 1.3
E. cloacae; [3]
  AK-based Prestwick Library Screening Results, E. cloacae (increase in extracellular AK activity): 1.3
P. aeruginosa; [3]
  AK-based Prestwick Library Screening Results, P. aeruginosa (increase in extracellular AK activity): 1.1

## C=CCSCC1Nc2cc(Cl)c(S(N)(=O)=O)cc2S(=O)(=O)N1 (centres unmarked) [Althiazide]
[1]; planktonic, cutoff for positive 3-fold increase, read-out: AK-based Prestwick Library Screening Results, S. aureus (fold increase in extracellular AK activity)
  fold induction at 50 µM: 0.4
E. faecium; planktonic, cutoff for positive 3-fold increase, read-out: AK-based Prestwick Library Screening Results, E. faecium (fold increase in extracellular AK activity)
  fold induction at 50 µM: 1
[2]; planktonic, cutoff for positive 3-fold increase, read-out: AK-based Prestwick Library Screening Results, A. baumannii (fold increase in extracellular AK activity)
  fold induction at 50 µM: 0.4
K. pneumoniae; planktonic, cutoff for positive 3-fold increase, read-out: AK-based Prestwick Library Screening Results, K. pneumoniae (fold increase in extracellular AK activity)
  fold induction at 50 µM: 0.4
E. coli; planktonic, cutoff for positive 3-fold increase, read-out: AK-based Prestwick Library Screening Results, E. coli (fold increase in extracellular AK activity)
  fold induction at 50 µM: 0.4
E. cloacae; planktonic, cutoff for positive 3-fold increase, read-out: AK-based Prestwick Library Screening Results, E. cloacae (fold increase in extracellular AK activity)
  fold induction at 50 µM: 0.3
P. aeruginosa; planktonic, cutoff for positive 3-fold increase, read-out: AK-based Prestwick Library Screening Results, P. aeruginosa (fold increase in extracellular AK activity)
  fold induction at 50 µM: 0.4

## O=C(O)CCc1nc(-c2ccccc2)c(-c2ccccc2)o1 [Oxaprozin]
[1]; planktonic S. aureus, positive cutoff 3-fold increase, read-out: AK-based Prestwick library screening result, S. aureus (fold increase in extracellular AK activity)
  fold induction at 50 µM: 0.5
E. faecium; planktonic E. faecium, positive cutoff 3-fold increase, read-out: AK-based Prestwick library screening result, E. faecium (fold increase in extracellular AK activity)
  fold induction at 50 µM: 1.1
[2]; planktonic A. baumannii, positive cutoff 3-fold increase, read-out: AK-based Prestwick library screening result, A. baumannii (fold increase in extracellular AK activity)
  fold induction at 50 µM: 0.7
K. pneumoniae; planktonic K. pneumoniae, positive cutoff 3-fold increase, read-out: AK-based Prestwick library screening result, K. pneumoniae (fold increase in extracellular AK activity)
  fold induction at 50 µM: 0.6
E. coli; planktonic E. coli, positive cutoff 3-fold increase, read-out: AK-based Prestwick library screening result, E. coli (fold increase in extracellular AK activity)
  fold induction at 50 µM: 0.6
E. cloacae; planktonic E. cloacae, positive cutoff 3-fold increase, read-out: AK-based Prestwick library screening result, E. cloacae (fold increase in extracellular AK activity)
  fold induction at 50 µM: 0.9
P. aeruginosa; planktonic P. aeruginosa, positive cutoff 3-fold increase, read-out: AK-based Prestwick library screening result, P. aeruginosa (fold increase in extracellular AK activity)
  fold induction at 50 µM: 0.7

## COCC(=O)Nc1c(I)c(C(=O)NCC(O)CO)c(I)c(C(=O)N(C)CC(O)CO)c1I (centres unmarked) [Iopromide]
[1]; cutoff for positive-scoring molecules 3-fold increase, read-out: AK-based Prestwick Library Screening Results, S. aureus (fold increase in extracellular AK activity)
  fold induction at 50 µM: 1.3
E. faecium; cutoff for positive-scoring molecules 3-fold increase, read-out: AK-based Prestwick Library Screening Results, E. faecium (fold increase in extracellular AK activity)
  fold induction at 50 µM: 1
[2]; cutoff for positive-scoring molecules 3-fold increase, read-out: AK-based Prestwick Library Screening Results, A. baumannii (fold increase in extracellular AK activity)
  fold induction at 50 µM: 1.1
K. pneumoniae; cutoff for positive-scoring molecules 3-fold increase, read-out: AK-based Prestwick Library Screening Results, K. pneumoniae (fold increase in extracellular AK activity)
  fold induction at 50 µM: 1.1
E. coli; cutoff for positive-scoring molecules 3-fold increase, read-out: AK-based Prestwick Library Screening Results, E. coli (fold increase in extracellular AK activity)
  fold induction at 50 µM: 1.2
E. cloacae; cutoff for positive-scoring molecules 3-fold increase, read-out: AK-based Prestwick Library Screening Results, E. cloacae (fold increase in extracellular AK activity)
  fold induction at 50 µM: 1.4
P. aeruginosa; cutoff for positive-scoring molecules 3-fold increase, read-out: AK-based Prestwick Library Screening Results, P. aeruginosa (fold increase in extracellular AK activity)
  fold induction at 50 µM: 1.2
